Assay results from patent US20100286093A1, “ANTI-INFLAMMATORY COMPOSITION CONTAINING DOCOSAHEXAENOYL LYSOPHOSPHATIDYLAMINE AS AN ACTIVE INGREDIENT” (The Industry & Academic Cooperation in Chungnam National …, priority 2009, published 2010).

Tests used:
[1] = system: zymosan A induced plasma leakage; assay: Zymosan A induced plasma leakage in peritoneal fluid (Evans blue), intravenous injection; assay type: in vivo, mice
Method: To investigate inhibitory effect of docosahexaenoyl lysophosphatidylcholine on peritonitis induced by zymosan, the present inventors induced inflammation in abdominal cavity by injecting zymosan A (saccharomyces cerevisiae) (Sigma-Aldrich Corp, St. Louis, Mo., USA), and then administered lysophosphatidylcholine, followed by evaluation of anti-inflammatory effect. Particularly, SPF mice (6 weeks, male) were adapted for 12 hours and then raised in an animal laboratory at College of Pharmacy under 12/12 hour dark/light cycle. Then, the mice were used for intra-abdominal inflammatory response experiment. First, each experimental group was composed of 5˜10 mice, to which 10˜500 μg/kg of each lysophosphatidylcholine was injected through tail vein. The control group was injected with 50˜100 ul of saline. 30 minutes later, 0.5% Evans blue dye solution (0.2 ml) was injected through tail vein and then 100 ul of zymosan A (1 mg/ml) dissolved in saline was injected into abdominal cavity. 30 minutes after the administration, the mice were anesthetized lightly with ether or fluorine, followed by neck dissection. 4 ml of ice-cold PBS was injected into abdominal cavity and peritoneal fluid was recovered by using a plastic syringe, followed by centrifugation (3,000 rpm, 10 minutes). Supernatant was obtained from the centrifugation, with which exudation of Evans blue was measured by spectrophotometer at 620 nm to evaluate anti-inflammatory effect (Arita M, et al., Proc Natl Acad Sci USA. 2005 May 24; 102(21):7671-6; Takenaka M, et al., Biol Pharm Bull. 2005 July; 28(7):1291-3).
The present inventors measured time-dependent anti-inflammatory effect (inhibitory effect on zymosan A induced plasma leakage) of each lysophosphatidylcholine. Particularly, docosahexaenoyl lysophosphatidylcholine (50 μg/kg) was injected to mice through tail vein at different time intervals (15 minutes—120 minutes; […], 30 minutes, 60 minutes and 120 minutes before zymosan A administration). After administrating zymosan A ([…]) via intraperitoneal injection, Evans blue was treated, followed by measuring plasma leakage in peritoneal fluid.
Particularly, docosahexaenoyl lysophosphatidylcholine (50 μg/kg), docosahexaenoic acid (50 μg/kg) or 17-HPDHA lysophosphatidylcholine (17(S)-hydroperoxy-4,7,10,13,15,19-docosahexaenoyl lysophosphatidylcholine) were compared. Soybean LOX-1 (200 units/ml) was added in borax buffer (50 mM, pH 9.0) containing docosahexaenoyl lysophosphatidylcholine (20 uM), followed by reaction at 25° C. for 30 minutes, which was passed through C18 column (2×1 cm) and eluted with methanol (Huang L S, et al., J Agric Food Chem. 2008 Sep. 10; 56(17):7808-14)] (50 μg/kg) was treated to mice 30 minutes before zymosan A injection. 30 minutes later, plasma leakage in peritoneal fluid was measured.
The present inventors intravenously injected docosahexaenoyl lysophosphatidylethanolamine into mice at the concentration of 15˜150 μg/kg. 30 Min later, 100 ul of zymosan A(1 mg/ml) was treated thereto to induce inflammation in abdominal cavity. After administering 0.5% Evans blue, plasma leakage in peritoneal fluid was measured.

[2] = system: zymosan A induced plasma leakage; assay: Zymosan A induced plasma leakage in peritoneal fluid (Evans blue), intraperitoneal injection; assay type: in vivo, mice; details: i.p.
Method: The present inventors intraperitoneally injected docosahexaenoyl lysophosphatidylcholine or 17-HPDHA lysophosphatidylcholine (docosahexaenoyl lysophosphatidylcholine oxide) into mice at the concentration of 15˜150 μg/kg. The control group was injected with 50˜100 ul of saline. 2 Hours later, 0.5% Evans Blue dye solution (0.2 ml) was injected through tail vein, followed by intraperitoneal injection of 100 ul of zymosan A (1 mg/ml) dissolved in saline. 30 minutes later, the mice were slightly anesthetized with ether or fluorine, followed by neck dissection. 4 ml of ice-cold PBS was injected into abdominal cavity and peritoneal fluid was recovered by using a plastic syringe, followed by centrifugation (3,000 rpm, 10 minutes). Exudation of Evans blue was measured to evaluate anti-inflammatory effect.

RAW 264.7 cells = assay: LPS induced NO generation in RAW 264.7 cells (Griess reagent); assay type: cell-based
Text: Macrophages are known to play an important role in inflammatory response and host defense. When macrophages are activated by lipopolysaccharide (LPS), a huge amount of NO (nitric oxide) is generated, which is mediated by inducible nitric oxide synthase (iNOS).
Based on that, the present inventors observed how unsaturated fatty acid containing lysophosphatidylcholine (lysoPC) affected the generation of NO, the inflammation mediator, induced by LPS in RAW 264.7 cells. Particularly, RAW 264.7 cells (5×10^4/well) were pre-cultured with each polyunsaturated lysophosphatidylcholine; linoleoyl lysophosphatidylcholine, arachidonoyl lysophosphatidylcholine and docosahexaenoyl lysophosphatidylcholine [prepared by the co-treatment with diacyl phosphatidylcholine (Avanti Polar Lipids, Alabaster, Ala., USA) and phospholipase A2 (PLA2, Sigma-Aldrich Corp, St. Louis, Mo., USA) (Croset, M. et al., Biochem. J. 2000, 345, 61-67; Adachi, J. et al., Kobe. J. Med. Sci. 2006, 52, 127-140)] (0˜60 uM) at 37° C. for 2 hours. Then, LPS (1 μg/ml) was added thereto, followed by culture for 20 hours under the same conditions as the above. […] Then, OD540 was measured to measure NO generation (Green L C, et al., Anal Biochem. 1982 October; 126(1):131-8).

Molecule: docosahexaenoyl lysophosphatidylethanolamine
- inhibitory effect on zymosan A induced plasma leakage ([1]; i.v., 50 μg/kg or higher, 30 min before zymosan A): significant inhibitory effect
- inhibition of zymosan A induced plasma leakage, dose dependence ([1]; i.v., up to 150 μg/kg): inhibited zymosan A induced plasma leakage dose-dependently

Molecule: 17(S)-hydroperoxy-4,7,10,13,15,19-docosahexaenoyl lysophosphatidylcholine [17-HPDHA lysophosphatidylcholine]
- inhibitory effect on zymosan induced plasma leakage ([2]; 15 μg/kg or higher, 2 hours before zymosan A): significant
- effectiveness in comparison with docosahexaenoyl lysophosphatidylcholine ([2]; 15~150 μg/kg): somewhat more effective than docosahexaenoyl lysophosphatidylcholine
- inhibition of zymosan induced plasma leakage, dose dependence ([2]; up to 150 μg/kg): dose-dependent
- inhibitory effect on plasma leakage (metabolite comparison) ([1]; 50 μg/kg, 30 minutes before zymosan A injection, compared to docosahexaenoyl lysophosphatidylcholine): a greater inhibitory effect

Molecule: arachidonoyl lysophosphatidylcholine [reference compound]
- reduction of zymosan induced plasma leakage ([1]; 50 μg/kg i.v.): reduced plasma leakage significantly
- reduction of zymosan induced plasma leakage ([1]; 150 μg/kg i.v.): more peculiar
- reduction of zymosan induced plasma leakage ([1]; 500 μg/kg i.v., versus 150 μg/kg): this effect was not increased any more
- inhibition of NO generation induced by LPS (RAW 264.7 cells; 60 uM): ≤ 20%

Molecule: CCCCC/C=C\C/C=C\CCCCCCCC(=O)OC[C@@H](O)COP(=O)([O-])OCC[N+](C)(C)C [linoleoyl lysophosphatidylcholine, reference compound]
- inhibition of zymosan induced plasma leakage, dose dependence ([1]; i.v., up to 500 μg/kg): did not show inhibitory effect
- inhibitory effect on NO generation induced by LPS (RAW 264.7 cells; up to 60 uM): did not show any significant inhibitory effect
